{"source": "patent US8263046B2", "about": "“N-phenyl-N-pyridinyl-benzamides and benzenesulfonomides having cooling properties” (Givaudan S.A., priority 2005, dated 2012)"}
{"test_system": "panelists", "test": "Experiments on cooling properties/intensities: panelists taste aqueous solutions", "assay_type": "in vivo", "conditions": "aqueous solution with cooling intensity similar or slightly higher than that of a solution of I-menthol at 2 ppm", "units": {"Concentration": "ppm"}}
{"smiles": "COc1ccc(C(=O)N(CCc2ccccn2)c2ccccc2)cc1", "note": "[Example 1, 4-Methoxy-N-phenyl-N-[2-(pyridin-2-yl)ethyl]benzamide]", "Concentration": 1.5}
{"smiles": "COc1ccc(S(=O)(=O)N(CCc2ccccn2)c2ccccc2)cc1", "note": "[Example 2, 4-Methoxy-N-phenyl-N-[2-(pyridin-2-yl)ethyl]benzenesulfonamide]", "Concentration": 2}
{"smiles": "O=S(=O)(c1ccc(Cl)cc1)N(CCc1ccccn1)c1ccccc1", "note": "[Example 3a, 4-Chloro-N-phenyl-N-[2-(pyridin-2-yl)ethyl]benzenesulfonamide]", "Concentration": 2}
{"smiles": "CCNC(=O)C1CC(C)CCC1C(C)C", "note": "(stereo not shown) [WS-3, N-ethyl p-menthanecarboxamide, reference compound]", "Concentration": 1.5}
